Test results from patent US20070004660A1, “Synergistic Modulation of Flt3 Kinase Using Alkylquinolines and Alkylquinazolines” (priority 2005, published 2007).
Structures can show the parent of a compound that is named as a salt.

Legend:
[1] = target: T1, isolated kinase domain of the human FLT3 receptor (a.a. 571-993) (Homo sapiens, UniProt P36888); assay: FLT3 fluorescence polarization kinase assay; assay type: biochemical; details: 150 uM ATP; uncertainty ±10%
T1 construct: human FLT3 receptor (a.a. 571-993)
T1 sequence (P36888 571-993): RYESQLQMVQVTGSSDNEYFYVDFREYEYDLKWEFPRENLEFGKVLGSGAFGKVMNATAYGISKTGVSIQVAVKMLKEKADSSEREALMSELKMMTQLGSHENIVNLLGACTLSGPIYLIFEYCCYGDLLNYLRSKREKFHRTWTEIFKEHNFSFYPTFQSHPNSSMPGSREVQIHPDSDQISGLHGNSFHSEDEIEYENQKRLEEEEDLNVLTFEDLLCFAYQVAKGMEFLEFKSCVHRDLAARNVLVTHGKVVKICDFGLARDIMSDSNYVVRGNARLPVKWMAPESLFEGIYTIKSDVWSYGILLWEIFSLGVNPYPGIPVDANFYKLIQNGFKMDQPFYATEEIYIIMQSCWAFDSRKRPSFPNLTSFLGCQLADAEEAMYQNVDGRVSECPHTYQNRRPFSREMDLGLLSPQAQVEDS

[2] = system: MV4-11 cells; assay: Inhibition of MV4-11 cell proliferation (CellTiterGlo, 72 h); assay type: cell-based; details: Homo sapiens; 72 h growth inhibition; uncertainty ±20%

| IC50 [1] [nM] | IC50 [2] [nM] | Compound |
| --- | --- | --- |
| 27 | 125 | CN1CCN(c2ccc3c(C4CCN(C(=O)Nc5ccc(N6CCOCC6)cc5)CC4)ncnc3c2)CC1 [Example 135, 4-[7-(4-Methyl-piperazin-1-yl)-quinazolin-4-yl]-piperidine-1-carboxylic acid (4-morpholin-4-yl-phenyl)-amide] |
| 6 | 88 | CS(=O)(=O)N1CCN(c2ccc3c(C4CCN(C(=O)Nc5ccc(N6CCOCC6)cc5)CC4)ncnc3c2)CC1 [Example 142, 4-[7-(4-Methanesulfonyl-piperazin-1-yl)-quinazolin-4-yl]-piperidine-1-carboxylic acid (4-morpholin-4-yl-phenyl)-amide] |
| 17 | 16 | O=C(CO)N1CCN(c2ccc3c(C4CCN(C(=O)Nc5ccc(N6CCCC6)cc5)CC4)ncnc3c2)CC1 [Compound 201, 4-{7-[4-(2-Hydroxy-acetyl)-piperazin-1-yl]-quinazolin-7-yl}-piperidine-1-carboxylic acid (4-pyrrolidin-1-yl-phenyl)-amide] |
| 291 | 75 | O=C(Nc1ccc(N2CCOCC2)cc1)N1CCC(c2ncnc3cc(N4CCC(F)CC4)ccc23)CC1 [Compound 196, 4-[7-(4-Fluoro-piperidin-1-yl)-quinazolin-4-yl]-piperidine-1-carboxylic acid (4-morpholin-4-yl-phenyl)-amide] |
| 65 | 137 | O=C(Nc1ccc(N2CCOCC2)cc1)N1CCC(c2ncnc3cc(N4CCOCC4)ccc23)CC1 [Example 145, 4-(7-Morpholin-4-yl-quinazolin-4-yl)-piperidine-1-carboxylic acid (4-morpholin-4-yl-phenyl)-amide] |
| 7 | 6 | CN1CCN(c2ccc3c(C4CCN(C(=O)Nc5ccc(N6CCCC6)cc5)CC4)ncnc3c2)CC1 [Example 159, 4-[7-(4-Methyl-piperazin-1-yl)-quinazolin-4-yl]-piperidine-1-carboxylic acid (4-pyrrolidin-1-yl-phenyl)-amide] |
| 33 | 387 | O=C(Nc1ccc(N2CCOCC2)cc1)N1CCC(c2ncnc3cc(N4CCC[C@H]4CO)ccc23)CC1 [Example 139, (S)-4-[7-(2-Hydroxymethyl-pyrrolidin-1-yl)-quinazolin-4-yl]-piperidine-1-carboxylic acid (4-morpholin-4-yl-phenyl)-amide] |
| 25 | 16 | O=C(Nc1ccc(N2CCOCC2)cc1)N1CCC(c2ncnc3cc(N4CC[C@H](O)C4)ccc23)CC1 [Example 128, 4-[7-(3-Hydroxy-pyrrolidin-1-yl)-quinazolin-4-yl]-piperidine-1-carboxylic acid (4-morpholin-4-yl-phenyl)-amide] |
| 9 | 17 | CC(=O)N1CCN(c2ccc3c(C4CCN(C(=O)Nc5ccc(N6CCCC6)cc5)CC4)ncnc3c2)CC1 [Example 166, 4-[7-(4-Acetyl-piperazin-1-yl)-quinazolin-4-yl]-piperidine-1-carboxylic acid (4-pyrrolidin-1-yl-phenyl)-amide] |
| 11 | 107 | O=C(Nc1ccc(N2CCCC2)cc1)N1CCC(c2ncnc3cc(N4CCSCC4)ccc23)CC1 [Compound 182, 4-(7-Thiomorpholin-4-yl-quinazolin-4-yl)-piperidine-1-carboxylic acid (4-pyrrolidin-1-yl-phenyl)-amide] |
| 10 | 9 | O=C(Nc1ccc(N2CCCC2)cc1)N1CCC(c2ncnc3cc(N4CCOCC4)ccc23)CC1 [Compound 181, 4-(7-Morpholin-4-yl-quinazolin-4-yl)-piperidine-1-carboxylic acid (4-pyrrolidin-1-yl-phenyl)-amide] |
| 244 | 58 | CN1CCN(c2ccc3c(C4CCN(C(=O)Nc5ccc(N6CCCC6)cc5)CC4)ncnc3c2)CC1=O [Compound 184, 4-[7-(4-Methyl-3-oxo-piperazin-1-yl)-quinazolin-4-yl]-piperidine-1-carboxylic acid (4-pyrrolidin-1-yl-phenyl)-amide] |
| 28 | 220 | CN1CCCN(c2ccc3c(C4CCN(C(=O)Nc5ccc(N6CCOCC6)cc5)CC4)ncnc3c2)CC1 [Example 138, 4-[7-(4-Methyl-[1,4]diazepan-1-yl)-quinazolin-4-yl]-piperidine-1-carboxylic acid (4-morpholin-4-yl-phenyl)-amide] |
| 12 | 74 | O=C(Nc1ccc(N2CCOCC2)cc1)N1CCC(c2ncnc3cc(N4CCN(CCO)CC4)ccc23)CC1 [Example 137, 4-{7-[4-(2-Hydroxy-ethyl)-piperazin-1-yl]-quinazolin-4-yl}-piperidine-1-carboxylic acid (4-morpholin-4-yl-phenyl)-amide] |
| 8 | 13 | CNC(=O)C1CCN(c2ccc3c(C4CCN(C(=O)Nc5ccc(N6CCCC6)cc5)CC4)ncnc3c2)CC1 [Example 155, 4-[7-(4-Carboxylic acid methylamide-piperidin-1-yl)-quinazolin-4-yl]-piperidine-1-carboxylic acid (4-pyrrolidin-1-yl-phenyl)-amide] |

The next lines start with the compound.

| Compound | IC50 [1] [nM] | IC50 [2] [nM] |
| --- | --- | --- |
| CN1CCN(CCCOc2cc3ncnc(C4CCN(C(=O)Nc5ccc(N6CCOCC6)cc5)CC4)c3cc2F)CC1 [Compound 205, 4-{6-Fluoro-7-[3-(4-methyl-piperazin-1-yl)-propoxy]-quinazolin-4-yl}-piperidine-1-carboxylic acid (4-morpholin-4-yl-phenyl)-amide] | 63 | 78 |
| O=C(Nc1ccc(N2CCCC2)cc1)N1CCC(c2ncnc3cc(N4CCN(c5ncccn5)CC4)ccc23)CC1 [Compound 193, 4-[7-(4-Pyrimidin-2-yl-piperazin-1-yl)-quinazolin-4-yl]-piperidine-1-carboxylic acid (4-pyrrolidin-1-yl-phenyl)-amide] | 4 | 16 |
| O=C(Nc1ccc(N2CCCC2)cc1)N1CCC(c2ncnc3cc(OCCCN4CCC[C@H]4CO)ccc23)CC1 [Example 161, (S)-4-{7-[3-(2-Hydroxymethyl-pyrrolidin-1-yl)-propoxy]-quinazolin-4-yl}-piperidine-1-carboxylic acid (4-pyrrolidin-1-yl-phenyl)-amide] | 1 | 13 |
| COc1cc2ncnc(C3CCN(C(=O)Nc4ccc(OC(C)C)cc4)CC3)c2cc1OC [Example 1, 4-(6,7-Dimethoxy-quinazolin-4-yl)-piperidine-1-carboxylic acid (4-isopropoxy-phenyl)-amide hydrochloride] | 46 | 88 |
| O=C(Nc1ccc(N2CCCC2)cc1)N1CCC(c2ncnc3cc(OCCN4CCC[C@H]4CO)ccc23)CC1 [Example 152, (S)-4-{7-[2-(2-Hydroxymethyl-pyrrolidin-1-yl)-ethoxy]-quinazolin-4-yl}-piperidine-1-carboxylic acid (4-pyrrolidin-1-yl-phenyl)-amide] | 18 | 21 |
| CC(=O)N1CCC[C@H]1COc1ccc2c(C3CCN(C(=O)Nc4ccc(N5CCCC5)cc4)CC3)ncnc2c1 [Example 162, (S)-4-[7-(1-Acetyl-pyrrolidin-2-ylmethoxy)-quinazolin-4-yl]-piperidine-1-carboxylic acid (4-pyrrolidin-1-yl-phenyl)-amide] | 32 | 46 |
| O=C(Nc1ccc(N2CCCC2)cc1)N1CCC(c2ncnc3cc(O[C@@H]4CCOC4)ccc23)CC1 [Compound 191, (R)-4-[7-(Tetrahydro-furan-3-yloxy)-quinazolin-4-yl]-piperidine-1-carboxylic acid (4-pyrrolidin-1-yl-phenyl)-amide] | 216 | 71 |
| COCCN1CCN(c2ccc3c(C4CCN(C(=O)Nc5ccc(N6CCCC6)cc5)CC4)ncnc3c2)CC1 [Compound 186, 4-{7-[4-(2-Methoxy-ethyl)-piperazin-1-yl]-quinazolin-4-yl}-piperidine-1-carboxylic acid (4-pyrrolidin-1-yl-phenyl)-amide] | 93 | 15 |
| COc1cc2ncnc(C3CCN(C(=O)Nc4ccc5ncsc5c4)CC3)c2cc1OC [Example 24, 4-(6,7-Dimethoxy-quinazolin-4-yl)-piperidine-1-carboxylic acid benzothiazol-6-ylamide] | 5500 | 3700 |
| COc1cc2ncnc(C3CCN(C(=O)Nc4ccc(CO)cc4)CC3)c2cc1OC [Example 22, 4-(6,7-Dimethoxy-quinazolin-4-yl)-piperidine-1-carboxylic acid (4-hydroxymethyl-phenyl)-amide] | 4400 | > 10000 |
| CC(C)Oc1ccc(NC(=O)N2CCC(c3ncnc4ccc(C#CCN5CCOCC5)cc34)CC2)cc1 [Example 15, 4-[6-(3-Morpholin-4-yl-prop-1-ynyl)-quinazolin-4-yl]-piperidine-1-carboxylic acid (4-isopropoxy-phenyl)-amide] | 46 | 30 |
| COc1cc2ncnc(C3CCN(C(=O)Nc4ccc5[nH]ccc5c4)CC3)c2cc1OC [Example 23, 4-(6,7-Dimethoxy-quinazolin-4-yl)-piperidine-1-carboxylic acid (1H-indol-5-yl)-amide] | 390 | 2700 |
| CN1CCN(CCOc2ccc3c(C4CCN(C(=O)Nc5ccc(N6CCCC6)cc5)CC4)ncnc3c2)CC1=O [Compound 202, 4-{7-[2-(4-Methyl-3-oxo-piperazin-1-yl)-ethoxy]-quinazolin-4-yl}-piperidine-1-carboxylic acid (4-pyrrolidin-1-yl-phenyl)-amide] | 90 | 74 |
